Reference: paper PMC4770324 (Journal of Medicinal Chemistry, 2016)

Assay: Chemical stability on storage

O=c1[nH]cnc2c(-n3cc(CCN4CCC(c5cc(F)cc(F)c5)CC4)cn3)nccc12 [Compound 54l]
chemical stability in air: chemical instability
